# Experimental data published in patent US20140296248A1, “METHODS AND COMPOSITIONS FOR PREDICTING RESISTANCE TO ANTICANCER TREATMENT” (Stichting het Nederlands Kanker Instiuut-Antoni van …, priority 2011, published 2014).
# Entries after “also recorded” stand apart in the source; their conditions may differ.
# How the values were obtained:
# [1] = tested on: A375 melanoma cells (BRAFV600E); assay: Long-term colony formation assay in A375 cells; assay type: cell-based, human; settings: for drug response of MED12 knockdown A375 cells: suppression of MED12; for effect of recombinant TGFβ on response of A375 cells to PLX4032 and AZD6244: TGFβ plus PLX4032 or AZD6244, TGFβ-dosage dependent
# Protocol: (§1) Cells were seeded into 6-well plates (2-5×10^4 cells/well) and cultured both in the absence and presence of drugs as indicated. […] All knockdown and overexpression experiments were done by retroviral or lentiviral infection. All relevant assays were performed independently at least three times.
# [2] = tested on: PC9 cells (EGFR delE746-A750 NSCLC); assay: Long-term colony formation / cell proliferation assay in PC9 cells; assay type: cell-based, human
# Protocol: (§2) Single cell suspensions of the lung cancer cell lines were seeded into 6-well plates (2×10^4 cells/well) and cultured both in the absence and presence of the ALK inhibitors. At the endpoints of colony formation assays, cells were fixed with formaldehyde, stained with crystal violet (0.1% w/v) and photographed. All relevant assays were performed independently at least three times. All knockdown and overexpression experiments were done by retroviral or lentiviral infections.
# as §1
# [3] = tested on: H3255 cells (EGFR L858R NSCLC); assay: Long-term colony formation / cell proliferation assay in H3255 cells; assay type: cell-based, human
# Protocol: as §2, §1
# [4] = tested on: PC9 cells (EGFR delE746-A750 NSCLC); settings: parental cells, low nanomolar concentrations; cited from earlier work
# [5] = tested on: H3255 cells (EGFR L858R NSCLC); settings: parental cells, low nanomolar concentrations; cited from earlier work
# [6] = tested on: H3122 cells (EML4-ALK NSCLC); assay: Long-term colony formation / cell proliferation assay in H3122 cells; assay type: cell-based, human; settings: for effect of recombinant TGFβ on crizotinib response of H3122 cells: TGFβ in combination with crizotinib, TGFβ-dosage dependent
# Protocol: as §2, §1
# [7] = tested on: phospho-ERK; assay: Western blotting of phospho-ERK in H3122 cells; assay type: cell-based, human; settings: 20 nM NVP-TAE684, 24 hours
# Protocol: (A) MED12^KD cells retain phospho-ERK levels in the presence of ALK inhibitor in EML4-ALK cells. H3122 cells expressing controls (pRS or shGFP) or shMED12 vectors were gown in the absence or presence of 20 nM NVP-TAE684 for 24 hours and the cell lysates were harvested for western blotting analysis. (B) SMARCE1^KD cells have elevated phospho-ERK in EML4-ALK cells. H3122 cells expressing controls (pRS or shGFP) or shSMARCE1 vectors were gown in the absence or presence of 20 nM NVP-TAE684 for 24 hours and the cell lysates were harvested for western blotting analysis. (C) MED12^KD cells have elevated phospho-ERK levels in EGFR mutant cells.
# Given that loss of MED12 or SMARCE1 causes resistance to multiple tyrosine kinase inhibitors in NSCLC cell lines, Applicants asked whether the activity of downstream components of receptor tyrosine kinase signaling is altered. ERK is a key downstream component and its phosphorylation status positively correlates with its activation that can be determined by specific antibodies against the phosphorylated form of ERK. H3122 cells were infected with two independent controls shRNA vectors or shRNAs targeting either MED12 or SMARCE1 and confirmed loss of MED12 or SMARCE1 protein by immunoblotting (FIGS. 16A and B). […]
# [8] = tested on: human NSCLC cell lines that harbor EML4-ALK translocations; settings: Galkin 2007; Koivunen 2008; Soda 2007; cited from earlier work
# [9] = tested on: SK-CO-1 colorectal cancer cells (KRASV12); assay: Long-term colony formation assay in SK-CO-1 cells; assay type: cell-based, human; settings: for effect of recombinant TGFβ on response of SK-CO-1 cells to AZD6244: TGFβ plus AZD6244, TGFβ-dosage dependent
# Protocol: (§3) Cells were seeded into 6-well plates (2-5×10^4 cells/well) and cultured both in the absence and presence of drugs as indicated. More details are described in Huang et al., 2009 (Huang et al., 2009). All knockdown and overexpression experiments were done by retroviral or lentiviral infection. All relevant assays were performed independently at least three times.
# [10] = tested on: ERK signaling; assay: ERK signaling in MED12-suppressed cancer cells in presence of drugs; assay type: cell-based, human
# Protocol: The cells were fixed, stained and photographed after 10 (untreated) or 28 days (treated). […] The cells were fixed, stained and photographed after 14 (untreated) or 28 days (treated). […] G) Colony formation assay of Huh-7 cells expressing pLKO control or shMED12 vectors (#4 and #5) were cultured in 2 μM sorafenib. The cells were fixed, stained and photographed after 14 (untreated) or 21 days (treated). […] Huh-7 cells expressing pLKO control or shMED12 vectors were grown in the absence or presence of 4 μM sorafenib for 6 hours and the cell lysates were harvested for western blotting analysis.
# [11] = tested on: phospho-ERK; assay: Western blotting of phospho-ERK in PC9 cells; assay type: cell-based, human; settings: 25 nM gefitinib, 8 hours
# Protocol: (A) Validation of independent shRNAs (in pLKO vector) targeting DABP2IP in PC9 cells. […] The cells were fixed, stained and photographed after 2 weeks (untreated) or 4 weeks (EGFR inhibitors treatment). (B) The knockdown ability of each of the shRNAs was measured by examining the DAB2IP mRNA levels by qRT-PCR. Error bars denote standard deviation (SD).
# To validate the results of Applicants' focused shRNA mini-screen, Applicants individually introduced the five DAB2IP shRNAs from the TRC shRNA collection into PC9 cells (FIG. 14A). […] Next, Applicants addressed whether loss of DAB2IP affects the activity of downstream signaling components of the RAS pathway, in particular the phosphorylation (activation) status of ERK. […] Next, Applicants individually introduced the five NF1 shRNAs from the TRC shRNA collection into PC9 cells (FIG. 15A).
# [12] = tested on: H1993 cells (MET-amplified NSCLC); assay: Long-term colony formation assay in H1993 cells; assay type: cell-based, human
# Protocol: as §2, §1
# [13] = tested on: EBC-1 cells (MET-amplified NSCLC); assay: Long-term colony formation assay in EBC-1 cells; assay type: cell-based, human
# Protocol: as §2, §1
# [14] = tested on: Huh-7 HCC cells; assay: Long-term colony formation assay in Huh-7 cells; assay type: cell-based, human
# Protocol: as §3
compound,measurement,setting,value
CCCS(=O)(=O)Nc1ccc(F)c(C(=O)c2c[nH]c3ncc(Cl)cc23)c1F [PLX4720],drug response of MED12 knockdown A375 cells,[1],conferred resistance
C#Cc1cccc(Nc2ncnc3cc(OCCOC)c(OCCOC)cc23)c1 [erlotinib],drug response of DAB2IP knockdown PC9 cells,"[2]; shDAB2IP#1 and #3, 50 nM",conferred resistance
same,drug response of NF1 knockdown PC9 cells,"[2]; shNF1#2 and #5, 50 nM",conferred resistance
same,drug response of control H3255 cells,[3]; pRS and shGFP control cells,effectively eradicated
same,drug response of MED12 knockdown H3255 cells,[3]; shMED12,insensitive
same,sensitivity of PC9 cells,[4],exquisitely sensitive
same,sensitivity of H3255 cells,[5],exquisitely sensitive
COc1cc(N2CCC(N3CCN(C)CC3)CC2)ccc1Nc1ncc(Cl)c(Nc2ccccc2S(=O)(=O)C(C)C)n1 [NVP-TAE684],drug response of ARID1A knockdown H3122 cells,"[6]; shARID1A, 300 nM crizotinib or 2.5 nM NVP-TAE684",confer resistance
same,drug response of MED12 knockdown H3122 cells,"[6]; shMED12 vectors, 300 nM crizotinib or 2.5 nM NVP-TAE684",confer resistance; also recorded: conferred resistance
same,drug response of SMARCE1 knockdown H3122 cells,"[6]; shSMARCE1, 300 nM crizotinib or 2.5 nM NVP-TAE684",confer resistance
same,ERK phosphorylation in MED12 knockdown H3122 cells in presence of inhibitor,[7]; shMED12,maintained higher levels of ERK phosphorylation
same,phosphorylated ERK in SMARCE1 knockdown H3122 cells in presence of inhibitor,[7]; shSMARCE1,maintained higher levels of phosphorylated ERK
same,inhibition of EML4-ALK NSCLC cell lines,[8],potently inhibit
O=C(NOC[C@H](O)CO)c1ccc(F)c(F)c1Nc1ccc(I)cc1F [PD-0325901],drug response of MED12 knockdown A375 cells,[1],conferred resistance
"Cn1cnc2c(F)c(Nc3ccc(Br)cc3Cl)c(C(=O)NOCCO)cc21 [AZD6244, seluteminib]",sensitivity of SK-CO-1 cells,[9]; parental cells,highly sensitive
same,drug response of MED12 knockdown SK-CO-1 cells,"[9]; shMED12, 0.5 μM AZD6244",conferred resistance
same,activation of ERK signaling by MED12 suppression in the presence of drug,[10],persists
COc1cc2ncnc(Nc3ccc(F)c(Cl)c3)c2cc1OCCCN1CCOCC1 [gefitinib],phosphorylation of ERK in shDAB2IP PC9 cells treated with drug,[11],maintained
same,activation of ERK signaling by MED12 suppression in the presence of drug,[10],persists
C[C@@H](Oc1cc(-c2cnn(C3CCNCC3)c2)cnc1N)c1c(Cl)ccc(F)c1Cl [crizotinib],drug response of ARID1A knockdown H1993 cells,[12]; shARID1A #1 and #2,conferred resistance
same,drug response of SMARCE1 knockdown H1993 cells,[12]; shSMARCE1#1 and #2,conferred resistance
same,drug response of SMARCE1 knockdown H1993 cells reconstituted with SMARCE1-ND,[12]; shSMARCE1 plus SMARCE1-ND,restored the sensitivity
same,drug response of SMARCE1 knockdown EBC-1 cells,[13]; shSMARCE1#1 and #2,conferred resistance
same,drug response of SMARCE1 knockdown EBC-1 cells reconstituted with SMARCE1-ND,[13]; shSMARCE1 plus SMARCE1-ND,restored the sensitivity
Cc1cccc(-c2nn3c(c2-c2ccnc4ccc(C(N)=O)cc24)CCC3)n1 [LY2157299],"proliferation under monotherapy, control and MED12KD H3122 cells","[6]; 1 μM LY2157299 alone, all cells",little effect
TGFβ,effect of recombinant TGFβ on crizotinib response of H3122 cells,[6],continued to proliferate
same,effect of recombinant TGFβ on crizotinib response of H3122 cells,[6]; listed as Recombinant TGFβ,leads to resistance
same,effect of recombinant TGFβ on response of PC9 cells to EGFR inhibitors,[2]; TGFβ plus EGFR inhibitors,conferred resistance
same,effect of recombinant TGFβ on response of H3255 cells to EGFR inhibitors,[3]; TGFβ plus EGFR inhibitors,conferred resistance
same,effect of recombinant TGFβ on response of A375 cells to PLX4032 and AZD6244,[1],dosage dependent resistance
same,effect of recombinant TGFβ on response of A375 cells to PLX4032 and AZD6244,[1]; listed as Recombinant TGFβ,leads to resistance
same,"proliferation of A375 cells, recombinant TGFβ alone",[1]; TGFβ treatment alone,growth inhibition
same,effect of recombinant TGFβ on response of SK-CO-1 cells to AZD6244,[9],dosage dependent resistance
same,effect of recombinant TGFβ on response of SK-CO-1 cells to AZD6244,[9]; listed as Recombinant TGFβ,leads to resistance
same,"proliferation of Huh-7 cells, recombinant TGFβ alone",[14]; TGFβ treatment alone,growth inhibition
CNC(=O)c1cc(Oc2ccc(NC(=O)Nc3ccc(Cl)c(C(F)(F)F)c3)cc2)ccn1 [sorafenib],sensitivity of Huh-7 cells,[14]; parental cells,sensitive
same,drug response of MED12 knockdown Huh-7 cells,"[14]; shMED12, 2 μM sorafenib",became resistant
same,activation of ERK signaling by MED12 suppression in the presence of drug,[10],persists
